Data from patent US12552758B2, “Inhibitors of MLH1 and/or PMS2 for cancer treatment” (NeoPhore Limited, priority 2020, dated 2026).

Key:
[1] = target: T1, recombinant N-terminal MLH1 (residues 15-340) (Homo sapiens (Human), UniProt P40692); assay: Fluorescence polarisation assay for MLH1 (protocol for Examples 64, 76, 90 and 95); conditions: FP probe displacement, 100 nM N-terminal MLH1, 5 nM probe compound, non-binding surface plate, read immediately
Procedure: Fluorescence Polarisation Assay for MLH1 (Protocol for Examples 64, 76, 90 and 95)
Test compounds, as 10 mM DMSO stocks, were dispensed into a 384-well Low Flange Black Flat Bottom Polystyrene Non-binding Surface plate (Corning®, item number 3575) using a Labcyte Echo acoustic liquid handler. Test compounds were added to wells in columns 1-22 whilst DMSO was added to wells in columns 23 and 24 in order to normalise the plate. 20 μL of a 2× solution (200 nM) of recombinant N-terminal MLH1 (residues 15-340) in assay buffer (25 mM HEPES, pH 7.5, 250 mM NaCl, 10 mM MgCl2, 0.01% Triton X-100, 5 mM dithiothreitol) was added to all wells in columns 1-23 and 20 μL assay buffer was added to all wells in column 24 using an E1-ClipTip pipette (ThermoFisher). Plates were centrifuged for 1 minute at 250×g and were incubated at room temperature for 30 minutes prior to the addition of 20 μL of 2×(10 nM) 5-((5-(4-((2-(2,4-dihydroxy-5-isopropylbenzoyl)isoindolin-5-yl)methyl)piperazin-1-yl)pentyl)carbamoyl)-2-(6-(dimethylamino)-3-(dimethyliminio)-3H-xanthen-9-yl)benzoate in assay buffer (prepared from a 1 mM DMSO stock) with an E1-ClipTip pipette (ThermoFisher). The final concentration of N-terminal MLH1 was 100 nM and the final concentration of the probe compound was 5 nM. Compound plates were centrifuged for 1 minute at 250 xg for 1 minute and immediately read on a PheraStar FSX (fitted with 384-well aperture spoon and 590 675 675 FP optic module). The gain and focus were adjusted before each plate was read so that the polarisation of a no enzyme control (column 24) was equal to 35 mP. Data were normalised against the no inhibitor controls (column 23) and no enzyme controls (column 24).

[2] = target: recombinant N-terminal PMS2 (residues 1-365) (Homo sapiens (Human), UniProt P54278); assay: Fluorescence polarisation assay for PMS2; assay type: binding; conditions: FP probe displacement; 10 nM N-terminal PMS2, 5 nM probe compound, read after 1 hour
How it was run: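 Displacement of a 5 nM (final) fluorescent probe from 10 nM human PMS2 (residues 1–365) is read as polarisation after 1 h at room temperature, following 30 min compound–protein pre-incubation. No-enzyme (set to 35 mP) and no-inhibitor wells define normalisation.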

[3] = target: T1, recombinant N-terminal MLH1 (residues 15-340); assay: Fluorescence polarisation assay for MLH1 (protocol for all Examples except Examples 64, 76, 90 and 95); assay type: binding; conditions: FP probe displacement; 100 nM N-terminal MLH1, 5 nM probe compound, read after 15 minutes; all Examples except 64, 76, 90 and 95
How it was run: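 N-terminal MLH1 (100 nM final) preincubated with compounds 30 min at room temperature, then rhodamine-labelled resorcinol probe added (5 nM final); fluorescence polarisation read after 15 min. Signal normalised to no-inhibitor and no-enzyme controls; serial dilutions for potency, single concentration for screening.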

Sequence of recombinant N-terminal PMS2 (residues 1-365) (P54278 1-365): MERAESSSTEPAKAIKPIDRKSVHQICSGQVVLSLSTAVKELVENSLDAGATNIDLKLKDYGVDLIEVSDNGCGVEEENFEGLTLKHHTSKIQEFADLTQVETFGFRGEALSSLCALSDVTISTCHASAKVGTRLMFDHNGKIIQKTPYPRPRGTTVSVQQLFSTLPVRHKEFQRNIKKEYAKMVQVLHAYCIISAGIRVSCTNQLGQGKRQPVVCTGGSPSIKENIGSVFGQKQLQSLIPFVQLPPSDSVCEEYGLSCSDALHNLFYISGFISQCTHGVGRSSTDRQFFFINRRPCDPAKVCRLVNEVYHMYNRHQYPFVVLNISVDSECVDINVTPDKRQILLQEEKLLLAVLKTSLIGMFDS
T1 sequence (P40692 15-340): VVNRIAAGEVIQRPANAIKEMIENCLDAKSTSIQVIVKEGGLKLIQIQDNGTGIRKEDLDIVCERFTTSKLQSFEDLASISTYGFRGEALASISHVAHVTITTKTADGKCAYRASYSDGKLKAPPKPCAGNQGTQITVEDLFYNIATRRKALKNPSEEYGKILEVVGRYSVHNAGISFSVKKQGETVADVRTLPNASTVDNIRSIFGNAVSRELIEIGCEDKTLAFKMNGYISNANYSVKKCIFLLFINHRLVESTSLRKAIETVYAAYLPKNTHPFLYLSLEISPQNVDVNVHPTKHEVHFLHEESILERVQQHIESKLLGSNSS

Row | SMILES | IC50 [1] | IC50 [2] | IC50 [3]
1 | Cc1c(O)cc(O)c(C(=O)N2Cc3ccccc3C[C@@H]2CO)c1OCc1ccccc1 [Example 64, (R)-(2-(benzyloxy)-4,6-dihydroxy-3-methylphenyl)(3-(hydroxymethyl)-3,4-dihydroisoquinolin-2(1H)-yl)methanone] | > 10 µM | 1 to 10 µM | –
2 | Cc1c(O)cc(O)c(C(=O)N2Cc3cccc(CN4CCOCC4)c3C2)c1OCc1ccccc1 [Example 76, (2-(Benzyloxy)-4,6-dihydroxy-3-methylphenyl)(4-(morpholinomethyl)isoindolin-2-yl)methanone] | > 10 µM | 1 to 10 µM | –
3 | Cc1c(O)cc(O)c(C(=O)N2Cc3cccc(NC4COC4)c3C2)c1OCc1ccccc1 [Example 80, (2-(Benzyloxy)-4,6-dihydroxy-3-methylphenyl)(4-(oxetan-3-ylamino)isoindolin-2-yl)methanone] | – | < 1 µM | 1 to 10 µM
4 | Cc1c(O)cc(O)c(C(=O)N2Cc3cccc(N4CCCC(O)C4)c3C2)c1OCc1ccccc1 (stereo not drawn) [Example 81, (2-(Benzyloxy)-4,6-dihydroxy-3-methylphenyl)(4-(3-hydroxypiperidin-1-yl)isoindolin-2-yl)methanone] | – | < 1 µM | > 10 µM
5 | Cc1c(O)cc(O)c(C(=O)N2Cc3cccc(C#N)c3C2)c1OCc1ccccc1 [Example 82, 2-(2-(benzyloxy)-4,6-dihydroxy-3-methylbenzoyl)isoindoline-4-carbonitrile] | – | < 1 µM | > 10 µM
6 | Cc1c(O)cc(O)c(C(=O)N2Cc3ccc(C(=O)N(C)C)cc3C2)c1OCc1ccccc1 [Example 83, 2-(2-(Benzyloxy)-4,6-dihydroxy-3-methylbenzoyl)-N,N-dimethylisoindoline-5-carboxamide] | – | < 1 µM | > 10 µM
7 | CNC(=O)c1ccc2c(c1)CN(C(=O)c1c(O)cc(O)c(C)c1OCc1ccccc1)C2 [Example 84, 2-(2-(Benzyloxy)-4,6-dihydroxy-3-methylbenzoyl)-N-methylisoindoline-5-carboxamide] | – | < 1 µM | > 10 µM
8 | Cc1c(O)cc(O)c(C(=O)N2Cc3cccc(C(=O)N(C)C)c3C2)c1OCc1ccccc1 [Example 85, 2-(2-(Benzyloxy)-4,6-dihydroxy-3-methylbenzoyl)-N,N-dimethylisoindoline-4-carboxamide] | – | < 1 µM | > 10 µM
9 | CNC(=O)c1cccc2c1CN(C(=O)c1c(O)cc(O)c(C)c1OCc1ccccc1)C2 [Example 86, 2-(2-(benzyloxy)-4,6-dihydroxy-3-methylbenzoyl)-N-methylisoindoline-4-carboxamide] | – | 1 to 10 µM | > 10 µM
10 | CC(=O)Nc1cccc2c1CN(C(=O)c1c(O)cc(O)c(C)c1OCc1ccccc1)C2 [Example 87, N-(2-(2-(benzyloxy)-4,6-dihydroxy-3-methylbenzoyl)isoindolin-4-yl)acetamide] | – | < 1 µM | > 10 µM
11 | Cc1c(O)cc(O)c(C(=O)N2Cc3cccc(OC4CCOC4)c3C2)c1OCc1ccccc1 (stereo not drawn) [Example 88] | – | < 1 µM | > 10 µM
12 | Cc1c(O)cc(O)c(C(=O)N2Cc3cccc(OCC4CNC4)c3C2)c1OCc1ccccc1 [Example 89, (4-(Azetidin-3-yl methoxy)isoindolin-2-yl) (2-(benzyloxy)-4,6-dihydroxy-3-methylphenyl) methanone] | – | < 1 µM | > 10 µM
13 | Cc1c(O)cc(O)c(C(=O)N2Cc3cccc(OCc4cncnc4)c3C2)c1OCc1ccccc1 [Example 90, (2-(Benzyloxy)-4,6-dihydroxy-3-methylphenyl)(4-(pyrimidin-5-ylmethoxy)isoindolin-2-yl)methanone] | > 10 µM | < 1 µM | –
14 | Cc1c(O)cc(O)c(C(=O)N2Cc3cccc(N4CC(C#N)C4)c3C2)c1OCc1ccccc1 [Example 91, 1-(2-(2-(Benzyloxy)-4,6-dihydroxy-3-methylbenzoyl)isoindolin-4-yl)azetidine-3-carbonitrile] | – | < 1 µM | > 10 µM
15 | COc1c(C)c(O)cc(O)c1C(=O)N1Cc2ccc(CN3CCN(C)CC3)cc2C1 [Example 92, (4,6-Dihydroxy-2-methoxy-3-methylphenyl)(5-((4-methylpiperazin-1-yl)methyl)isoindolin-2-yl)methanone] | – | < 1 µM | > 10 µM
16 | CCOc1c(C)c(O)cc(O)c1C(=O)N1Cc2ccc(CN3CCN(C)CC3)cc2C1 [Example 93, (2-Ethoxy-4,6-dihydroxy-3-methylphenyl)(5-((4-methylpiperazin-1-yl)methyl)isoindolin-2-yl)methanone] | – | < 1 µM | > 10 µM
17 | Cc1c(O)cc(O)c(C(=O)N2Cc3ccc(CN4CCN(C)CC4)cc3C2)c1OCC1CCCCC1 [Example 94, (2-(Cyclohexylmethoxy)-4,6-dihydroxy-3-methylphenyl)(5-((4-methylpiperazin-1-yl)methyl)isoindolin-2-yl)methanone] | – | < 1 µM | > 10 µM
18 | Cc1c(O)cc(O)c(C(=O)N2Cc3ccc(CN4CCN(C)CC4)cc3C2)c1OCC1CC1 [Example 95, (2-(Cyclopropylmethoxy)-4,6-dihydroxy-3-methylphenyl)(5-((4-methylpiperazin-1-yl)methyl)isoindolin-2-yl)methanone] | > 10 µM | < 1 µM | –
